The values below come from patent publication US7615643B2 (SmithKline Beecham Corporation, priority 2006, dated 2009).

The target of this test is T1, PLK1 (Homo sapiens, UniProt P53350).
T1 construct: PLK kinase domain (amino acids 21-346 preceded by MKKGHHHHHHD); made in house; host or cells: baculovirus infected T. ni cells
The test can be described thus: Assay for inhibition of PLK1 (SPA kinase assay). The test is classed as biochemical. As to conditions: 1 μM ATP, 2 nM PLK1 kinase domain; for IC50: read-out: PLK1 pIC50 (converted). A digest of the protocol: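 His-tagged PLK1 kinase domain (aa 21-346, baculovirus/T. ni) at 2 nM with 1 μM ATP plus 33P-γ-ATP and 1 μM biotinylated peptide in 25 mM HEPES pH 7.2, 15 mM MgCl2, 1 mM DTT, 0.15 mg/mL BSA; 1-1.5 h at 22° C. Streptavidin SPA capture read; percent inhibition versus DMSO, EDTA background.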

T1 sequence (P53350 21-346): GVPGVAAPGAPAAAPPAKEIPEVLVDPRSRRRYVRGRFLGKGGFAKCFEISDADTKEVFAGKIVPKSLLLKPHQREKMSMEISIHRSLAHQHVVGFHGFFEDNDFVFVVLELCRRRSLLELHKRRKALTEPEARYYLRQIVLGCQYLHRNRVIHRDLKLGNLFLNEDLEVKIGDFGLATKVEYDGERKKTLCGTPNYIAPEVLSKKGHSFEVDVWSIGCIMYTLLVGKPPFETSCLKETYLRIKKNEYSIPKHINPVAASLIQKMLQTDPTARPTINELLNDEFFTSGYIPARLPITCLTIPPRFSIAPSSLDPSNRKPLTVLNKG

With `CC(Oc1cc(-n2cnc3cc(-c4cnn(C)c4)ccc32)sc1C(N)=O)c1cccc(OC2CCNCC2)c1F` (racemic) [Example 75, (+/−)-3-({1-[2-Fluoro-3-(4-piperidinyloxy)phenyl]ethyl}oxy)-5-[5-(1-methyl-1H-pyrazol-4-yl)-1H-benzimidazol-1-yl]-2-thiophenecarboxamide], the IC50 is less than 100 nM. As for `C[C@@H](Oc1cc(-n2cnc3cc(Cl)ccc32)sc1C(N)=O)c1cccc(OC2CCN(CCF)CC2)c1Cl` [Example 21, 5-(5-Chloro-1H-benzimidazol-1-yl)-3-{[(1R)-1-(2-chloro-3-{[1-(2-fluoroethyl)-4-piperidinyl]oxy}phenyl)ethyl]oxy}-2-thiophenecarboxamide], the IC50 is less than 100 nM. `C[C@@H](Oc1cc(-n2cnc3cc(Cl)c(F)cc32)sc1C(N)=O)c1cccc(OC2CCN(C)CC2)c1Cl` [Example 68, 5-(5-Chloro-6-fluoro-1H-benzimidazol-1-yl)-3-[((1R)-1-{2-chloro-3-[(1-methyl-4-piperidinyl)oxy]phenyl}ethyl)oxy]-2-thiophenecarboxamide]: the IC50 was less than 100 nM.

Consider `C[C@@H](Oc1cc(-n2cnc3ccccc32)sc1C(N)=O)c1cccc(OC2CCN(C)CC2)c1Cl` [Example 13, 5-(1H-benzimidazol-1-yl)-3-[((1R)-1-{2-chloro-3-[(1-methyl-4-piperidinyl)gxy]phenyl}ethyl)oxy]-2-thiophenecarboxamide], for which the IC50 is less than 100 nM. Consider `Cc1ccc(-c2ccc3c(c2)ncn3-c2cc(O[C@H](C)c3cccc(OC4CCNCC4)c3Cl)c(C(N)=O)s2)cn1` [Example 9, 3-({(1R)-1-[2-chloro-3-(4-piperidinyloxy)phenyl]ethyl}oxy)-5-[5-(6-methyl-3-pyridinyl)-1H-benzimidazol-1-yl]-2-thiophenecarboxamide], for which the IC50 is less than 100 nM. Consider `C[C@@H](Oc1cc(-n2cnc3cc(F)c(Cl)cc32)sc1C(N)=O)c1cccc(OC2CCN(C)CC2)c1Cl` [Example 70, 5-(6-Chloro-5-fluoro-1H-benzimidazol-1-yl)-3-[((1R)-1-{2-chloro-3-[(1-methyl-4-piperidinyl)oxy]phenyl}ethyl)oxy]-2-thiophenecarboxamide], for which the IC50 was less than 100 nM. Turning to `Cc1nnc(-c2ccc3c(c2)ncn3-c2cc(O[C@H](C)c3cccc(OC4CCNCC4)c3Cl)c(C(N)=O)s2)o1` [Example 87, 3-({(1R)-1-[2-Chloro-3-(4-piperidinyloxy)phenyl]ethyl}oxy)-5-[5-(5-methyl-1,3,4-oxadiazol-2-yl)-1H-benzimidazol-1-yl]-2-thiophenecarboxamide], the IC50 was less than 100 nM.

With `C[C@@H](Oc1cc(-n2cnc3cc(-c4cnn(C)c4)ccc32)sc1C(N)=O)c1cccc(OC2CCN(CCF)CC2)c1Cl` [Example 29, 3-{[(1R)-1-(2-Chloro-3-{[1-(2-fluoroethyl)-4-piperidinyl]oxy}phenyl)ethyl]oxy}-5-[5-(1-methyl-1H-pyrazol-4-yl)-1H-benzimidazol-1-yl]-2-thiophenecarboxamide], the IC50 was less than 100 nM. As for `C[C@@H](Oc1cc(-n2cnc3ccc(S(C)(=O)=O)cc32)sc1C(N)=O)c1cccc(OC2CCNCC2)c1Cl` [Example 60, 3-({(1R)-1-[2-chloro-3-(4-piperidineloxy)phenyl]ethyl}oxy)-5-[6-(methylsulfonyl)-1H-benzimidazol-1-yl]-2-thiophenecarboxamide], the “PLK1 pIC50” value is “+++ (pIC50>7)”.

As for `C[C@@H](Oc1cc(-n2cnc3cc(Cl)c(F)cc32)sc1C(N)=O)c1cccc(OC2CCNCC2)c1Cl` [Example 67, 5-(5-Chloro-6-fluoro-1H-benzimidazol-1-yl)-3-({(1R)-1-[2-chloro-3-(4-piperidinyloxy)phenyl]ethyl}oxy)-2-thiophenecarboxamide], the IC50 is less than 100 nM. Turning to `CC(Oc1cc(-n2cnc3cc(-c4cnn(C)c4)ccc32)sc1C(N)=O)c1ccnc(OC2CCNCC2)n1` (racemic) [Example 77, (+/−)-5-[5-(1-Methyl-1H -pyrazol-4-yl)-1H-benzimidazol-1-yl]-3-({1-[2-(4-piperidinyloxy)-4-pyrimidinyl]ethyl}oxy)-2-thiophenecarboxamide], the IC50 is 100 to 1000 nM.
